Experimental data taken from publication PMC8151276, “An Integrated Approach toward NanoBRET Tracers for Analysis of GPCR Ligand Engagement” (Molecules, 2021).

Molecular target: T1, ADRA2A (Homo sapiens, UniProt P08913)
T1 construct: purchased Promega (in-house HiBiT-GPCR construct library, NanoBRET)
T1 sequence (P08913 1-465): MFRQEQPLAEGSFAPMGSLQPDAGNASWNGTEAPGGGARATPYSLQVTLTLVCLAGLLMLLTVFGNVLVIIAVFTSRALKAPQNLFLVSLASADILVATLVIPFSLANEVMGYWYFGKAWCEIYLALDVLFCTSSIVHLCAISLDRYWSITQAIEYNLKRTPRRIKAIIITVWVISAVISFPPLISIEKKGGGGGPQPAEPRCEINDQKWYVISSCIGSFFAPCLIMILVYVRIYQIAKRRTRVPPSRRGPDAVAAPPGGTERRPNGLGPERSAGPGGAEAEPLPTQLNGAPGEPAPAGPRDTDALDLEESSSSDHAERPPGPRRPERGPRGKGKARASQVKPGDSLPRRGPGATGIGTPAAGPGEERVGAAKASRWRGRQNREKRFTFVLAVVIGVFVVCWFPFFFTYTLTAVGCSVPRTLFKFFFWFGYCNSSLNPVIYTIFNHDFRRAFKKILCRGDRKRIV
Test: NanoBRET screen HiBiT-ADRA2A in HEK293
Type: binding
Protocol: Each tracer candidate was screened across the entire library of HiBiT-GPCR constructs using NanoBRET as the detection modality. As depicted in Figure 4A, the specificity of interactions was evaluated through decrease in BRET due to competitive displacement of a bound tracer by excess parental compound. Each tracer was analyzed for binding to each HiBiT-GPCR fusion in the absence and in the presence of competing parental compound. Briefly, HEK293 cells were transfected with HiBiT-GPCR constructs diluted into promoterless DNA to reduce expression and maximize translocation to the cell surface. Each tracer candidate was then screened at concentrations of 1 μM and 0.1 μM across cells expressing these fusions. Cells were treated for 1.5 h with tracer either alone or in the presence of 20 μM competing parental compound (i.e., control). BRET was measured upon addition of purified LgBiT and subsequent complementation with HiBiT genetically fused to a GPCR. The specificity of interactions was assessed through a decrease in BRET signal due to competitive displacement of the bound tracer. To further gauge the robustness of these interactions, the fold response over the control (i.e., BRETtracer/BRETcontrol) was calculated. We chose a 1.5-fold response, which translates to ≥7-fold signal over noise as the minimal threshold required to score an interaction as positive.
HiBiT-GPCR DNA constructs were diluted in 10 mM Tris pH 8 to a final concentration of 0.01 μg/μL, arrayed in 96-well plates and stored at −20 °C. For transfection, HEK293 cells were suspended in Opti-MEM (without phenol red) supplemented with 2% fetal bovine serum (Seradigm) and 100 units/mL penicillin–streptomycin (Gibco) at a final concentration of 220,000 cells/mL and dispensed into white 96-well plates at 90 μL/well. Subsequent transfections and screens were carried using an Agilent Bravo Automated Liquid Handling Platform. First, the 96-well HiBiT DNA arrays were diluted 25-fold in Opti-MEM (without serum or phenol red) to a final concentration of 0.0004 μg/μL and 20 μL of the diluted DNAs were transferred into new 96-well plates. Next, promoterless carrier DNA (1 μg/μL) was diluted 25-fold (0.04 μg/μL) and then dispensed into the diluted arrays at 20 μL/well. Following brief mixing, Viafect transfection reagent (Promega) diluted 16-fold into Opti-MEM was dispensed into the plates at 40 μL/well. After mixing by pipetting, plates were incubated for 10 min on the pipetting station deck. The DNA-transfection reagent complexes were then added to plates containing cells. To facilitate the screen, 10 μL of DNA-transfection reagent complexes were added in duplicates to the top 4 and bottom 4 rows, resulting in two identical 48-well arrays per plate. Plates with transfected cells were incubated for 18–20 h at 37 °C/5% CO2. A screen of each tracer across the entire library using two different concentrations requires duplicate plates of transfected cells. Depending on the number of tracers being screened, transfections can be scaled up using the same ratios. The next day, for each tracer, four 20× screening solutions in tracer dilution buffer (Promega) were prepared: two duplicates at final concentration of 20 μM and two duplicates at a final concentration of 2 μM. […] The four resulting solutions were diluted 4-fold in Opti-MEM without serum or phenol red to generate 5× solutions (5 µM and 0.5 µM tracer +/− 100 μM competing compound). To screen the library, a BioTek MultiFlo FX liquid dispenser was used to dispense 22.5 µL of tracer solution to the top 4 rows and 22.5 µL tracer + competing compound solution to the 4 bottom rows. Plates were briefly mixed on an orbital shaker and incubated for 1.5 h at room temperature. […] Plates were briefly mixed on an orbital shaker and incubated for 15 min to allow complementation.

Compound	NanoBRET Fold Response (ADRA2A, tracer 0.1μM)	NanoBRET Fold Response (ADRA2A, tracer 1μM)	other results
Cc1nc2n(c(=O)c1CCN1CCC(c3noc4cc(F)ccc34)CC1)CCCC2OC(=O)NCCOCCOCCOCCOCCNC(=O)CCc1ccc2n1[B-](F)(F)[N+]1=C(c3ccc[nH]3)C=CC1=C2 (stereo not drawn) [Risperidone-2-NB590]	1.29	2.34	
CCOC(=O)c1cc(C#N)c(N2CCC(C(=O)NS(=O)(=O)Cc3ccccc3/C=C/C(=O)NCCNC(=O)CCc3ccc4n3[B-](F)(F)[N+]3=C(c5ccc[nH]5)C=CC3=C4)CC2)nc1C [AZD1283-1-NB590]			NanoBRET Fold Response (ADRA2A, 0.1μM): 1.04; NanoBRET Fold Response (ADRA2A, 1μM): 1.13
Cc1cc2c(s1)Nc1ccccc1N=C2N1CCN(CCCNC(=O)CCOCCOCCOCCOCCNC(=O)CCc2ccc3n2[B-](F)(F)[N+]2=C(c4ccc[nH]4)C=CC2=C3)CC1 [Olanzapine-a-2-NB590]	1.00	1.04	
COc1ccccc1N1CCN(CCCCN2C(=O)c3ccc(CNC(=O)CCOCCNC(=O)c4ccc(CNC(=O)CCc5ccc6n5[B-](F)(F)[N+]5=C(c7ccc[nH]7)C=CC5=C6)cc4)cc3C2=O)CC1 [NAN-190-3-NB590]	2.11	2.92	
CC(C)N(CC[C@H](c1ccccc1)c1cc(CCNC(=O)CCOCCOCCOCCOCCNC(=O)CCc2ccc3n2[B-](F)(F)[N+]2=C(c4ccc[nH]4)C=CC2=C3)ccc1O)C(C)C [Tolterodine-2-NB590]	1.00	1.02	
CN(C)CCC=C1c2ccccc2CCc2ccc(C(=O)NCCNC(=O)CCOCCOCCOCCOCCNC(=O)CCc3ccc4n3[B-](F)(F)[N+]3=C(c5ccc[nH]5)C=CC3=C4)cc21 [Amitriptyline-b-2-NB590]			NanoBRET Fold Response (tracer at 0.1μM, listed as amitriptyline-b-2-NB590): 1.11; NanoBRET Fold Response (tracer at 1μM, listed as amitriptyline-b-2-NB590): 1.00
O=C(CCOCCOCCOCCOCCNC(=O)CCc1ccc2n1[B-](F)(F)[N+]1=C(c3ccc[nH]3)C=CC1=C2)NCCCN1CCN(C2=Nc3ccccc3Oc3ccc(Cl)cc32)CC1 [Loxapine-a-2-NB590]	0.99	1.02	
CN(C)CCC=C1c2ccccc2CCc2ccc(C(=O)NCCNC(=O)CCOCCOCCOCCOCCNC(=O)CCc3ccc4n3[B-](F)(F)[N+]3=C(c5ccc[nH]5)C=CC3=C4)cc21 [Amitriptyline-a-2-NB590]			NanoBRET Fold Response (tracer at 0.1μM): 1.03; NanoBRET Fold Response (tracer at 1μM): 1.12
O=C(CCc1ccc2n1[B-](F)(F)[N+]1=C(c3ccc[nH]3)C=CC1=C2)NCCOCCOCCNC(=O)OCCOCCN1CCN(C2=Nc3ccccc3Sc3ccccc32)CC1 [Quetiapine-a-2-NB590]	1.10	1.22	
COc1ccccc1N1CCN(CCCCN2C(=O)c3ccc(CNC(=O)CCOCCOCCOCCOCCNC(=O)CCc4ccc5n4[B-](F)(F)[N+]4=C(c6ccc[nH]6)C=CC4=C5)cc3C2=O)CC1 [NAN-190-2-NB590]	2.17	3.08	
N#CN/C(=N\CCNC(=O)c1ccc(N)cc1)NCCCOc1cccc(CN2CCCCC2)c1 [Aminopotentidine (unmodified)]			NanoBRET Fold Response (ADRA2A, other tracers/Aminopotentidine (unmodified), 0.1μM): 1.01; NanoBRET Fold Response (ADRA2A, other tracers/Aminopotentidine (unmodified), 1μM): 1.67
COc1ccc2[nH]c(-c3ccc(CNC(=O)CCOCCOCCOCCOCCNC(=O)CCc4ccc5n4[B-](F)(F)[N+]4=C(c6ccc[nH]6)C=CC4=C5)cc3)c(CCNC(C)=O)c2n1 [AzomelatoninICO9-2-NB590]			NanoBRET Fold Response (0.1μM tracer): 1.01; NanoBRET Fold Response (1μM tracer): 1.06
O=C(CCOCCOCCOCCOCCNC(=O)CCc1ccc2n1[B-](F)(F)[N+]1=C(c3ccc[nH]3)C=CC1=C2)NCCCN1CCN(C2=Nc3cc(Cl)ccc3Nc3ccccc32)CC1 [Clozapine-a-2-NB590]			NanoBRET Fold Response (ADRA2A, 0.1μM tracer): 1.27; NanoBRET Fold Response (ADRA2A, 1μM tracer): 1.78
CCCn1c(=O)c2[nH]c(-c3ccc(OCC(=O)NCCNC(=O)CCOCCNC(=O)c4ccc(CNC(=O)CCc5ccc6n5[B-](F)(F)[N+]5=C(c7ccc[nH]7)C=CC5=C6)cc4)cc3)nc2n(CCC)c1=O [XAC-3-NB590]	0.97	1.11	
O=C(CCc1ccc2n1[B-](F)(F)[N+]1=C(c3ccc[nH]3)C=CC1=C2)NCc1ccc(C(=O)NCCOCCOCCNCC(O)COc2cccc3ccccc23)cc1 (stereo not drawn) [Propranolol-3-NB590]			NanoBRET Fold Response (ADRA2A, 0.1μM): 1.04; NanoBRET Fold Response (ADRA2A, 1μM): 1.06
O=C(CCc1ccc2n1[B-](F)(F)[N+]1=C(c3ccc[nH]3)C=CC1=C2)NCc1ccc(C(=O)NCCOCCC(=O)N[C@@H]2CC[C@@]3(O)[C@H]4Cc5ccc(O)c6c5[C@@]3(CCN4CC3CC3)[C@H]2O6)cc1 [Naltrexone-3-NB590]	1.12	0.92	
CN(CCC=C1c2ccccc2CCc2ccccc21)C(=O)CCOCCOCCOCCOCCNC(=O)CCc1ccc2n1[B-](F)(F)[N+]1=C(c3ccc[nH]3)C=CC1=C2 [Amitriptyline-e-2-NB590]			NanoBRET Fold Response (tracer at 1μM): 1.09
N#CN=C(NCCCOc1cccc(CN2CCCCC2)c1)NCCNC(=O)CCOCCOCCOCCOCCNC(=O)CCc1ccc2n1[B-](F)(F)[N+]1=C(c3ccc[nH]3)C=CC1=C2 [Aminopotentidine-2-NB590]	1.04	1.26	
COc1ccc2c(n1)c(CCNC(C)=O)cn2CCNC(=O)CCc1ccc2n1[B-](F)(F)[N+]1=C(c3ccc[nH]3)C=CC1=C2 [Azamelatonin-1-NB590]			NanoBRET Fold Response (0.1μM tracer): 1.08; NanoBRET Fold Response (1μM tracer): 1.01
CC(C)N(CC[C@H](c1ccccc1)c1cc(CCNC(=O)c2ccc(CNC(=O)CCc3ccc4n3[B-](F)(F)[N+]3=C(c5ccc[nH]5)C=CC3=C4)cc2)ccc1O)C(C)C [Tolterodine-BZ-NB590]	1.08	1.07	
